Assay results from patent US20250019387A1 (Frontier Medicines Corporation, priority 0001, published 2025).

target: KRAS G12C and cRAF (Ras-binding domain) interaction (Homo sapiens (Human), UniProt P01116, C118S/C51S/C80L/G12C); test: Inhibition of KRAS G12C and cRAF binding (AlphaScreen); conditions: GMPPNP-loaded KRAS G12C, 19-20 hours incubation with compound; read-out: IC50 (Inhibition of KRAS G12C and cRAF Binding)
Method in brief: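 IC50 values come from 4-parameter nonlinear regression of AlphaScreen signal (680 nm excitation, 570 nm emission). Compound plates sat 19-20 h at room temperature before RBD and donor/acceptor beads were added in Hepes pH 7.4 buffer with 150 mM NaCl, 5 mM MgCl2, 2% DMSO for 60-90 min; biotin-AviTag-GST replaced RBD to flag assay-technology interferers.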

Sequence of KRAS G12C and cRAF (Ras-binding domain) interaction (P01116 other isoform, or with tags, fused parts or gaps G12C/C51S/C80L/C118S): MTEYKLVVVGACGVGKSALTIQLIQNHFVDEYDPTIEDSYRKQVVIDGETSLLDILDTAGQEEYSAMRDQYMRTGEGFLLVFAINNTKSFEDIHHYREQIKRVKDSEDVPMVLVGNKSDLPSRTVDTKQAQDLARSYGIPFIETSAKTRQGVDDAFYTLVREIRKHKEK

Row | SMILES | IC50 [nM]
1 | C=CC(=O)N1CC[C@@H](N(C)c2nc(OC[C@@]34CCCN3C[C@H](F)C4)nc3c(F)c(-c4cccc5cc(F)cc(F)c45)ncc23)C1 [Example 268, 1-((R)-3-((7-(6,8-difluoronaphthalen-1-yl)-8-fluoro-2-(((2R,7aS)-2-fluorohexahydro-1H-pyrrolizin-7a-yl)methoxy)pyrido[4,3-d]pyrimidin-4-yl)(methyl)amino)pyrrolidin-1-yl)prop-2-en-1-one] | 100 to 500
2 | C=CC(=O)N1CC[C@@H](N(C)c2nc(OCC34CCCN3CCC4)nc3c(F)c(-c4cccc5c(F)cc(F)cc45)ncc23)C1 [Example 269, (R)-1-(3-((7-(5,7-difluoronaphthalen-1-yl)-8-fluoro-2-((hexahydro-1H-pyrrolizin-7a-yl)methoxy)pyrido[4,3-d]pyrimidin-4-yl)(methyl)amino)pyrrolidin-1-yl)prop-2-en-1-one] | 100 to 500
3 | Cc1cc(/C=C/C(=O)N2CC(CN(C)c3nc(OC[C@@]45CCCN4C[C@H](F)C5)nc4c(F)c(-c5cccc6ccc(F)c(Cl)c56)ncc34)C2)nc(C)n1 [Example 273, (E)-1-(3-(((7-(8-chloro-7-fluoronaphthalen-1-yl)-8-fluoro-2-(((2R,7aS)-2-fluorotetrahydro-1H-pyrrolizin-7a(5H)-yl)methoxy)pyrido[4,3-d]pyrimidin-4-yl)(methyl)amino)methyl)azetidin-1-yl)-3-(2,6-dimethylpyrimidin-4-yl)prop-2-en-1-one] | 100 to 500
4 | Cc1cc(/C=C/C(=O)N2CC(CN(C)c3nc(OC[C@@]45CCCN4C[C@H](F)C5)nc4c(F)c(-c5cccc6ccc(F)c(F)c56)ncc34)C2)nc(C)n1 [Example 274, (E)-1-(3-(((7-(7,8-difluoronaphthalen-1-yl)-8-fluoro-2-(((2R,7aS)-2-fluorotetrahydro-1H-pyrrolizin-7a(5H)-yl)methoxy)pyrido[4,3-d]pyrimidin-4-yl)(methyl)amino)methyl)azetidin-1-yl)-3-(2,6-dimethylpyrimidin-4-yl)prop-2-en-1-one] | 10 to 100
5 | Cc1cc(/C=C/C(=O)N2CC(CN(C)c3nc(OC[C@@]45CCCN4C[C@H](F)C5)nc4c(F)c(-c5cccc6cccc(Cl)c56)ncc34)C2)nc(C)n1 [Example 275, (E)-1-(3-(((7-(8-chloronaphthalen-1-yl)-8-fluoro-2-(((2R,7aS)-2-fluorohexahydro-1H-pyrrolizin-7a-yl)methoxy)pyrido[4,3-d]pyrimidin-4-yl)(methyl)amino)methyl)azetidin-1-yl)-3-(2,6-dimethylpyrimidin-4-yl)prop-2-en-1-one] | 100 to 500
6 | CN1CC(=CC(=O)N2CC[C@@H](N(C)c3nc(OC[C@@]45CCCN4C[C@H](F)C5)nc4c(F)c(-c5cccc6cccc(Cl)c56)ncc34)C2)C1 [Example 276, 1-((R)-3-((7-(8-chloronaphthalen-1-yl)-8-fluoro-2-(((2R,7aS)-2-fluorotetrahydro-1H-pyrrolizin-7a(5H)-yl)methoxy)pyrido[4,3-d]pyrimidin-4-yl)(methyl)amino)pyrrolidin-1-yl)-2-(1-methylazetidin-3-ylidene)ethan-1-one] | 10 to 100
7 | C#Cc1c(F)ccc2cccc(-c3ncc4c(N(C)CC5CN(C(=O)/C=C/c6cc(C)nc(C)n6)C5)nc(OC[C@@]56CCCN5C[C@H](F)C6)nc4c3F)c12 [Example 280, (E)-3-(2,6-dimethylpyrimidin-4-yl)-1-(3-(((7-(8-ethynyl-7-fluoronaphthalen-1-yl)-8-fluoro-2-(((2R,7aS)-2-fluorotetrahydro-1H-pyrrolizin-7a(5H)-yl)methoxy)pyrido[4,3-d]pyrimidin-4-yl)(methyl)amino)methyl)azetidin-1-yl)prop-2-en-1-one] | 10 to 100
8 | Cc1c(F)ccc2c(-c3ncc4c(N(C)[C@@H]5CCN(C(=O)/C=C/CN(C)C)C5)nc(OC[C@@]56CCCN5C[C@H](F)C6)nc4c3F)cccc12 [Example 281, (E)-4-(dimethylamino)-1-((R)-3-((8-fluoro-7-(6-fluoro-5-methylnaphthalen-1-yl)-2-(((2R,7aS)-2-fluorotetrahydro-1H-pyrrolizin-7a(5H)-yl)methoxy)pyrido[4,3-d]pyrimidin-4-yl)(methyl)amino)pyrrolidin-1-yl)but-2-en-1-one] | 100 to 500
9 | Cc1c(F)ccc2c(-c3ncc4c(N(C)[C@@H]5CCN(C(=O)/C=C/[C@H]6CCN6C)C5)nc(OC[C@@]56CCCN5C[C@H](F)C6)nc4c3F)cccc12 [Example 282, (E)-1-((R)-3-((8-fluoro-7-(6-fluoro-5-methylnaphthalen-1-yl)-2-(((2R,7aS)-2-fluorotetrahydro-1H-pyrrolizin-7a(5H)-yl)methoxy)pyrido[4,3-d]pyrimidin-4-yl)(methyl)amino)pyrrolidin-1-yl)-3-((R)-1-methylazetidin-2-yl)prop-2-en-1-one] | 100 to 500
10 | C=CC(=O)N1C[C@@H](N(C)c2nc(OC[C@@]34CCCN3C[C@H](F)C4)nc3c(F)c(-c4cccc5cccc(Cl)c45)ncc23)C(F)(F)C1 [Example 285, 1-((R)-4-((7-(8-chloronaphthalen-1-yl)-8-fluoro-2-(((2R,7aS)-2-fluorotetrahydro-1H-pyrrolizin-7a(5H)-yl)methoxy)pyrido[4,3-d]pyrimidin-4-yl)(methyl)amino)-3,3-difluoropyrrolidin-1-yl)prop-2-en-1-one] | > 500
11 | C#Cc1c(F)ccc2cccc(-c3ncc4c(N(C)[C@@H]5CCN(C(=O)/C=C/CN6CC[C@H](OC)C6)C5)nc(OC[C@@]56CCCN5C[C@H](F)C6)nc4c3F)c12 [Example 286, (E)-1-((R)-3-((7-(8-ethynyl-7-fluoronaphthalen-1-yl)-8-fluoro-2-(((2R,7aS)-2-fluorotetrahydro-1H-pyrrolizin-7a(5H)-yl)methoxy)pyrido[4,3-d]pyrimidin-4-yl)(methyl)amino)pyrrolidin-1-yl)-4-((S)-3-methoxypyrrolidin-1-yl)but-2-en-1-one] | 10 to 100

Next, values leading:

Row | IC50 [nM] | SMILES
12 | 10 to 100 | Cc1nccc(/C=C/C(=O)N2CC[C@@H](N(C)c3nc(OC[C@@]45CCCN4C[C@H](F)C5)nc4c(F)c(-c5cccc6ccc(F)c(Cl)c56)ncc34)C2)n1 [Example 270, (E)-1-((R)-3-((7-(8-chloro-7-fluoronaphthalen-1-yl)-8-fluoro-2-(((2R,7aS)-2-fluorotetrahydro-1H-pyrrolizin-7a(5H)-yl)methoxy)pyrido[4,3-d]pyrimidin-4-yl)(methyl)amino)pyrrolidin-1-yl)-3-(2-methylpyrimidin-4-yl)prop-2-en-1-one]
13 | 10 to 100 | Cc1nccc(/C=C/C(=O)N2CC[C@@H](N(C)c3nc(OC[C@@]45CCCN4C[C@H](F)C5)nc4c(F)c(-c5cccc6ccc(F)c(F)c56)ncc34)C2)n1 [Example 271, (E)-1-((R)-3-((7-(7,8-difluoronaphthalen-1-yl)-8-fluoro-2-(((2R,7aS)-2-fluorotetrahydro-1H-pyrrolizin-7a(5H)-yl)methoxy)pyrido[4,3-d]pyrimidin-4-yl)(methyl)amino)pyrrolidin-1-yl)-3-(2-methylpyrimidin-4-yl)prop-2-en-1-one]
14 | 10 to 100 | Cc1cc(/C=C/C(=O)N2CC[C@@H](N(C)c3nc(OC[C@@]45CCCN4C[C@H](F)C5)nc4c(F)c(-c5cccc6ccc(F)c(Cl)c56)ncc34)C2)nc(C)n1 [Example 272, (E)-1-((R)-3-((7-(8-chloro-7-fluoronaphthalen-1-yl)-8-fluoro-2-(((2R,7aS)-2-fluorotetrahydro-1H-pyrrolizin-7a(5H)-yl)methoxy)pyrido[4,3-d]pyrimidin-4-yl)(methyl)amino)pyrrolidin-1-yl)-3-(2,6-dimethylpyrimidin-4-yl)prop-2-en-1-one]
15 | 100 to 500 | CCc1c(F)ccc2cccc(-c3ncc4c(N(C)[C@@H]5CCN(C(=O)/C=C/c6ccnc(C)n6)C5)nc(OC[C@@]56CCCN5C[C@H](F)C6)nc4c3F)c12 [Example 277, (E)-1-((R)-3-((7-(8-ethyl-7-fluoronaphthalen-1-yl)-8-fluoro-2-(((2R,7aS)-2-fluorohexahydro-1H-pyrrolizin-7a-yl)methoxy)pyrido[4,3-d]pyrimidin-4-yl)(methyl)amino)pyrrolidin-1-yl)-3-(2-methylpyrimidin-4-yl)prop-2-en-1-one]
16 | 10 to 100 | C#Cc1c(F)ccc2cccc(-c3ncc4c(N(C)[C@@H]5CCN(C(=O)/C=C/c6ccnc(C)n6)C5)nc(OC[C@@]56CCCN5C[C@H](F)C6)nc4c3F)c12 [Example 278, (E)-1-((R)-3-((7-(8-ethynyl-7-fluoronaphthalen-1-yl)-8-fluoro-2-(((2R,7aS)-2-fluorotetrahydro-1H-pyrrolizin-7a(5H)-yl)methoxy)pyrido[4,3-d]pyrimidin-4-yl)(methyl)amino)pyrrolidin-1-yl)-3-(2-methylpyrimidin-4-yl)prop-2-en-1-one]
17 | 100 to 500 | CCc1c(F)ccc2cccc(-c3ncc4c(N(C)[C@@H]5CCN(C(=O)/C=C/c6cc(C)nc(C)n6)C5)nc(OC[C@@]56CCCN5C[C@H](F)C6)nc4c3F)c12 [Example 279, (E)-3-(2,6-dimethylpyrimidin-4-yl)-1-((R)-3-((7-(8-ethyl-7-fluoronaphthalen-1-yl)-8-fluoro-2-(((2R,7aS)-2-fluorotetrahydro-1H-pyrrolizin-7a(5H)-yl)methoxy)pyrido[4,3-d]pyrimidin-4-yl)(methyl)amino)pyrrolidin-1-yl)prop-2-en-1-one]
18 | 100 to 500 | CCc1c(F)ccc2cccc(-c3ncc4c(N(C)CC5CN(C(=O)/C=C/c6cc(C)nc(C)n6)C5)nc(OC[C@@]56CCCN5C[C@H](F)C6)nc4c3F)c12 [Example 283, (E)-3-(2,6-dimethylpyrimidin-4-yl)-1-(3-(((7-(8-ethyl-7-fluoronaphthalen-1-yl)-8-fluoro-2-(((2R,7aS)-2-fluorotetrahydro-1H-pyrrolizin-7a(5H)-yl)methoxy)pyrido[4,3-d]pyrimidin-4-yl)(methyl)amino)methyl)azetidin-1-yl)prop-2-en-1-one]
